Experimental data reported in patent publication US11779014B2, “Adjuvants” (SYNGENTA PARTICIPATIONS AG, priority 2017, dated 2023).

What was measured:
[1] = De-gelling temperature of aqueous surfactant blends by low shear rheology (Bohlin Gemini rheometer, storage modulus vs temperature); type: physicochemical
Protocol: The temperatures at which blends of capped and uncapped surfactants de-gel were determined by standard low shear rheology with a Bohlin™ Gemini rheometer. The storage modulus (G′) at 1 Hz was determined at a strain of 0.001-0.002 in a standard C14 cup and bob geometry over a temperature range of 5-70° C., the exact range depending on the de-gelling point of the sample. Plots of storage modulus versus temperature were constructed and the de-gelling temperature was taken to be the point at which the modulus begins to fall rapidly from its high value in the gelled state (typically ca. 10^5 Pa) down to the final value in the de-gelled state (less than 10 Pa). Blends of surfactants were prepared at from 25 to 40% w/w total surfactant concentration in water. Samples were left in an oven at 55° C. for several days to ensure that the mixtures were homogeneous. Samples were placed in the C14 cup and the samples were de-gelled by raising the temperature in the rheometer, the bob was then inserted and the sample was then cooled at 1° C./min, whilst the storage modulus was regularly recorded during the cooling. Once the final temperature had been reached (i.e. when the sample had gelled), the temperature was then increased again and the modulus again recorded. The de-gelling temperature was determined from the increasing temperature cycle.
Degelling temperatures—the measurements relied on the same method as for ‘Example 1’ but just at 30% w/w total surfactant concentration.
De-gelling temperatures were measured using the same method as in Example 1.
(§1) This example provides de-gelling, cloud point and adjuvancy data for dodecyl 23 ethoxylate with n-hexyl cap and hexadecyl 20 ethoxylate with n-hexyl cap Cloud points were measured as described in example 1 for 1% aqueous solutions of the capped and uncapped surfactants both individually and as blends (see Table 30). Degelling temperatures were also measured as outlined in example 1 for 25, 30, 35 and 40% aqueous solutions of the capped and uncapped surfactants both individually and as blends (see Table 31).
(§2) This example provides de-gelling, cloud point and adjuvancy data for oleyl 20 ethoxylate with n-butyl, n-pentyl or benzyl ether caps end capped oleyl 20 ethoxylate. Cloud points were measured as described in example 1 for 1% aqueous solutions of the capped and uncapped surfactants both individually and as blends. Degelling temperatures were also measured as outlined in example 1 for 25, 30, 35 and 40% aqueous solutions o of the capped and uncapped surfactants both individually and as blends.

[2] = Cloud point measurement (absorbance at 500 nm as a function of temperature); type: physicochemical; conditions: 1% aqueous solutions
Protocol: Consistent with the standard method for measuring the cloud point of surfactants, the cloud point of each of the above blends was measured at a total concentration of 1% w/w in water using a Perkin Elmer spectrophotometer fitted with a PTP6 temperature controller. The absorbance of the solution at 500 nm wavelength was determined as a function of temperature. The cloud point was recorded as the onset of a rapid increase in absorbance as the solution began to cloud.
Cloud point—the measurements relied on the same method as for ‘Example 1’
Cloud points—were measured using the same method as in Example 1.
as §1, §2

Avena fatua (AVEFA) = experiment: Glasshouse adjuvancy test for pinoxaden on AVEFA; type: in vivo; conditions: pinoxaden 15 g ai/ha, total surfactant 0.2% w/v, 21 days
Protocol: The efficacy of 1:1 blends of oleyl 20EO with oleyl 20EO with either n-hexanoyl, n-octanoyl or 2-ethyl hexanoyl ester caps as adjuvants for the herbicide pinoxaden was tested in a glasshouse against two weed species, sown into standard soil in pots and cultivated under controlled conditions in a glasshouse (20/16° C. day/night; 16 hours light; 65% humidity). Pinoxaden was added to the spray tank as a standard EC (emulsifiable concentrate) formulation. The plants were sprayed with pinoxaden at rates of 7.5 or 15 grams of pesticide per hectare using a laboratory track sprayer which delivered the aqueous spray composition at a rate of 200 litres per hectare, using a flat fan nozzle (Teejet 11002VS) at 2 bar. The spray solutions also contained the oleyl 20EO alone or in the 1:1 blends with the capped surfactants. The adjuvants were added to the spray solution at a total surfactant rate of 0.2% w/v. All spray solutions also contained 10% w/w of iso-propanol. The weed species and their BBCH growth stage at spraying were Avena fatua (AVEFA; growth stage 13) and Setaria viridis (SETVI; growth stage 13). Each spray test was replicated three times. The test plants were then grown in a glasshouse under controlled conditions (20/16° C. day/night; 16 hours light; 65% humidity) and watered twice a day. The efficacy of the herbicide was assessed visually and expressed as a percentage of the leaf area killed. Samples were assessed at a time period of 21 days following application.
Dodecyl 23EO and hexadecyl 20EO were capped with an n-hexyl ether cap. The efficacy of 1:1 blends of these with their uncapped counterparts were tested as adjuvants for the herbicide pinoxaden was tested in a glasshouse against two weed species, sown into standard soil in pots and cultivated under controlled conditions in a glasshouse (20/16° C. day/night; 16 hours light; 65% humidity). Pinoxaden was added to the spray tank as a standard EC (emulsifiable concentrate) formulation. The plants were sprayed with pinoxaden at a.i. rates of 7.5 or 15 grams per hectare using a laboratory track sprayer which delivered the aqueous spray composition at a rate of 200 litres per hectare, using a flat fan nozzle (Teejet 11002VS) at 2 bar. The spray solutions tested included the capped and uncapped alone or in the 1:1 blends with the capped surfactants. The adjuvants were added to the spray solution at a total surfactant rate of 0.2% w/v. All spray solutions also contained 10% w/w of iso-propanol. The weed species and their BBCH growth stage at spraying was Avena fatua (AVEFA; growth stage 12). Each spray test was replicated three times. The test plants were then grown in a glasshouse under controlled conditions (20/16° C. day/night; 16 hours light; 65% humidity) and watered twice a day. The efficacy of the herbicide was assessed visually and expressed as a percentage of the leaf area killed. Samples were assessed at a time period of 21 days following application.
Oleyl 20EO was capped with -butyl, n-pentyl and n-benzyl caps. The efficacy of 1:1 blends of these with their uncapped counterparts were tested as adjuvants for the herbicide pinoxaden was tested in a glasshouse against two weed species, sown into standard soil in pots and cultivated under controlled conditions in a glasshouse (20/16° C. day/night; 16 hours light; 65% humidity). Pinoxaden was added to the spray tank as a standard EC (emulsifiable concentrate) formulation. The plants were sprayed with pinoxaden at a.i. rates of 7.5 or 15 grams per hectare using a laboratory track sprayer which delivered the aqueous spray composition at a rate of 200 litres per hectare, using a flat fan nozzle (Teejet 11002VS) at 2 bar. The spray solutions tested included the capped and uncapped alone or in the 1:1 blends with the capped surfactants. The adjuvants were added to the spray solution at a total surfactant rate of 0.2% w/v. All spray solutions also contained 10% w/w of iso-propanol.

[3] = total surfactant concentration 25% w/w, Table 35
[4] = total surfactant concentration 30% w/w, Table 35
[5] = total surfactant concentration 35% w/w, Table 35
[6] = total surfactant concentration 40% w/w, Table 35
[7] = total surfactant concentration 25% w/w, Table 31
[8] = total surfactant concentration 30% w/w, Table 31
[9] = total surfactant concentration 35% w/w, Table 31
[10] = total surfactant concentration 40% w/w, Table 31

With CCCCCCCC/C=C\CCCCCCCCOCCOCCOCCOCCOCCOCCOCCOCCOCCOCCOCCOCCOCCOCCOCCOCCOCCOCCOCCOCCOCc1ccccc1 [Oleyl 20EO n-benzyl ether] as the compound, how does the De-gelling temperature [1, 3] read?
The De-gelling temperature was less than 5 °C.

And the De-gelling temperature [1, 4]?
Its De-gelling temperature is less than 5 °C.

What about the De-gelling temperature [1, 5] of the same compound?
The De-gelling temperature was 5 °C.

And the De-gelling temperature [1, 6]?
Its De-gelling temperature is 15.1 °C.

What about the Cloud point ([2]; Table 34) of the same compound?
The Cloud point was 38.7 °C.

And the Mean control (Avena fatua (AVEFA); Example 9, growth stage 12)?
The Mean control was 89.3%.

What does the source list for Hexadecyl 20EO n-hexyl ether?
De-gelling temperature [1, 7]: <5 °C; De-gelling temperature [1, 8]: <5 °C; De-gelling temperature [1, 9]: 5.7 °C; De-gelling temperature [1, 10]: 19.6 °C; Cloud point ([2]; Table 30): 55.9 °C; Mean control (Avena fatua (AVEFA); Example 7, growth stage 12): 93.3%

Which results are given for dodecyl 23 ethoxylate [Dodecyl 23EO]?
De-gelling temperature [1, 7]: 21.1 °C; De-gelling temperature [1, 8]: 38.6 °C; De-gelling temperature [1, 9]: 55.0 °C; De-gelling temperature [1, 10]: 64.3 °C; Cloud point ([2]; Table 30): >90.0 °C; Mean control (Avena fatua (AVEFA); Example 7, growth stage 12): 83.3%

With Dodecyl 23EO n-hexyl ether as the compound, how does the De-gelling temperature [1, 7] read?
The De-gelling temperature was less than 5 °C.

What about the De-gelling temperature [1, 8] of the same compound?
The De-gelling temperature was less than 5 °C.

What about the De-gelling temperature [1, 9] of the same compound?
The De-gelling temperature was less than 5 °C.

And the De-gelling temperature [1, 10]?
The De-gelling temperature was 7.4 °C.

And the Cloud point ([2]; Table 30)?
Its Cloud point is 67.2 °C.

And the Mean control (Avena fatua (AVEFA); Example 7, growth stage 12)?
Its Mean control is 86%.

Which De-gelling temperature [1, 3] does the source give for Oleyl 20EO n-pentyl ether here?
The De-gelling temperature was less than 5 °C.

What about the De-gelling temperature [1, 4] of the same compound?
The De-gelling temperature was 27.3 °C.

And the De-gelling temperature [1, 5]?
Its De-gelling temperature is 34.0 °C.

And the De-gelling temperature [1, 6]?
Its De-gelling temperature is 36.1 °C.

What about the Cloud point ([2]; Table 34) of the same compound?
Its Cloud point is 55.9 °C.

And the Mean control (Avena fatua (AVEFA); Example 9, growth stage 12)?
The Mean control was 87.7%.
